Experimental data taken from publication PMC12282101, “Heat shock protein 90 chaperone activity is required for hepatitis A virus replication” (Journal of Virology, 2025).
Structures can show the parent of a compound that is named as a salt.

What was measured:
Huh-7.5.1 cells = experiment: Cell viability in the chemical screen (Cell TiterGlo); conditions: 10 µM compound, 72 h
18f-NLuc reporter virus = experiment: microbe, parasite or virus in culture; assay type: cell-based, Hepatitis A virus; conditions: for activity at 10 µM: Hepatovirus A, Huh-7.5.1, 72 h, read-out: Normalized HAV production

| SMILES | Viability Percent DMSO (Huh-7.5.1 cells) [Percent DMSO] | activity at 10 µM (18f-NLuc reporter virus) [%] | Normalized HAV production (18f-NLuc reporter virus) |
| --- | --- | --- | --- |
| Nc1nc2c(ncn2CCC(CO)CO)c(=O)[nH]1 [Penciclovir] | 96 | 111 |  |
| O=C(O)c1ccccc1C(=O)Nc1ccc(S(=O)(=O)Nc2nccs2)cc1 [Phthalylsulfathiazole] | 112 | 83 |  |
| CCOC(=O)c1ccc(OCCC2CCN(c3ccc(C)nn3)CC2)cc1 [Pirodavir] | 134 | 91 |  |
| Cc1nc(N(C)C(=O)Cc2ccc(-c3ccccn3)cc2)sc1S(N)(=O)=O [Pritelivir] | 127 | 78 |  |
| Cc1nnc(C(=O)NC(C)(C)c2nc(C(=O)NCc3ccc(F)cc3)c(O)c(=O)n2C)o1 [Raltegravir] | 132 | 124 |  |
| CCOCc1nc2c(N)nc3ccccc3c2n1CC(C)(C)O [Resiquimod] | 107 | 130 |  |
| Cc1nc(Nc2ccc(F)cc2)nc(N2CCc3ccccc3C2C)c1C (centres unmarked) [Revaprazan hydrochloride] | 115 | 87 |  |
| CO[C@H]1/C=C/O[C@@]2(C)Oc3c(C)c(O)c4c(O)c(c(/C=N/N5CCN(C)CC5)c(O)c4c3C2=O)NC(=O)/C(C)=C\C=C\[C@H](C)[C@H](O)[C@@H](C)[C@@H](O)[C@@H](C)[C@H](OC(C)=O)[C@@H]1C [Rifampicin] | 119 | 86 |  |
| Cc1cc(/C=C/C#N)cc(C)c1Nc1ccnc(Nc2ccc(C#N)cc2)n1 [Rilpivirine] | 132 | 71 |  |
| CC(N)C12CC3CC(CC(C3)C1)C2 (centres unmarked) [Rimantadine hydrochloride] | 98 | 113 |  |
| COc1ccc(C2CNC(=O)C2)cc1OC1CCCC1 (centres unmarked) [Rolipram] | 113 | 130 |  |
| O=C(Nc1ccccc1)c1ccccc1O [Salicylanilide] | 120 | 76 |  |
| Cc1cc(F)c(C(=O)Nc2cccc(-c3nncn3C(C)C)n2)cc1-n1cnc(C2CC2)c1 [Selonsertib] | 131 | 38 |  |
| CC(C)OC(=O)[C@H](C)N[P@](=O)(OC[C@H]1O[C@@H](n2ccc(=O)[nH]c2=O)[C@](C)(F)[C@@H]1O)Oc1ccccc1 [Sofosbuvir] | 130 | 38 |  |
| CN[C@@H]1[C@H](O)[C@H](NC)[C@H]2O[C@@]3(O)C(=O)C[C@@H](C)O[C@H]3O[C@@H]2[C@H]1O.Cl.Cl [Spectinomycin dihydrochloride] | 109 |  | 0.83 |
| Cc1cn([C@H]2C=C[C@@H](CO)O2)c(=O)[nH]c1=O [Stavudine] | 101 | 101 |  |
| COc1ncnc(NS(=O)(=O)c2ccc(N)cc2)c1OC [Sulfadoxine] | 118 | 69 |  |
| CCC[C@H](NC(=O)[C@@H]1[C@H]2CCC[C@H]2CN1C(=O)[C@@H](NC(=O)[C@@H](NC(=O)c1cnccn1)C1CCCCC1)C(C)(C)C)C(=O)C(=O)NC1CC1 [Telaprevir] | 119 | 73 |  |
| Cc1cn([C@@H]2C[C@@H](O)[C@H](CO)O2)c(=O)[nH]c1=O [Telbivudine] | 108 | 156 |  |
| C[C@H](Cn1cnc2c(N)ncnc21)OCP(=O)(O)O [Tenofovir] | 118 | 128 |  |
| CN(C)[C@@H]1C(O)=C(C(N)=O)C(=O)[C@@]2(O)C(O)=C3C(=O)c4c(O)cccc4[C@@](C)(O)[C@H]3C[C@@H]12 [Tetracycline] | 114 | 89 |  |
| CCS(=O)(=O)CCn1c([N+](=O)[O-])cnc1C [Tinidazole] | 108 | 78 |  |
